Measurements: the NIST ThermoML archive (doi:10.1021/je500513b)
Numbers after ± are expanded uncertainties.

Assay: mn = molality of the nth substance listed, in mol/kg
Settings: for surface tension liquid-gas: Pendant drop shape; for electrical conductivity: 100 kPa, Liquid, Mettler Toledo inLab 710

CCCCCCCCCCCC[N+](C)(C)CCCCCC[N+](C)(C)CCCCCCCCCCCC.[Br-].[Br-] + O
Settings	electrical conductivity [S/m]	surface tension liquid-gas [mN/m]
298.15 K, m1 = 0.0001	–	61.45 ± 2
298.15 K, m1 = 0.0002	–	53.1 ± 1
298.15 K, m1 = 0.0004	–	47.33 ± 0.7
298.15 K, m1 = 0.00056	0.0115 ± 0.0005	–
298.15 K, m1 = 0.00059	0.0123 ± 0.0005	–
298.15 K, m1 = 0.0006	–	42.35 ± 0.64
298.15 K, m1 = 0.00063	0.0132 ± 0.0004	–
298.15 K, m1 = 0.00067	0.0138 ± 0.0004	–
298.15 K, m1 = 0.0007	–	40.01 ± 0.57
298.15 K, m1 = 0.00071	0.0147 ± 0.0004	–
298.15 K, m1 = 0.00077	0.0159 ± 0.0004	–
298.15 K, m1 = 0.0008	–	38.21 ± 0.46
298.15 K, m1 = 0.00083	0.017 ± 0.0004	–
298.15 K, m1 = 0.00085	–	38.13 ± 0.38
298.15 K, m1 = 0.00087	0.0176 ± 0.0004	–
298.15 K, m1 = 0.0009	–	37.83 ± 0.38
298.15 K, m1 = 0.00091	0.0182 ± 0.0004	–
298.15 K, m1 = 0.00095	0.0188 ± 0.0003	–
298.15 K, m1 = 0.001	0.0194 ± 0.0003	37.53 ± 0.37
298.15 K, m1 = 0.00105	0.02 ± 0.0003	–
298.15 K, m1 = 0.0011	–	37.34 ± 0.37
298.15 K, m1 = 0.00111	0.0206 ± 0.0003	–
298.15 K, m1 = 0.00118	0.0212 ± 0.0003	–
298.15 K, m1 = 0.0012	–	37.28 ± 0.37
298.15 K, m1 = 0.00125	0.0219 ± 0.0003	–
298.15 K, m1 = 0.00133	0.0225 ± 0.0003	–
298.15 K, m1 = 0.00143	0.0231 ± 0.0003	–
298.15 K, m1 = 0.0015	–	37.38 ± 0.37
298.15 K, m1 = 0.00154	0.024 ± 0.0003	–
298.15 K, m1 = 0.00167	0.0249 ± 0.0003	–
298.15 K, m1 = 0.00182	0.0259 ± 0.0003	–
298.15 K, m1 = 0.002	0.0269 ± 0.0003	37.23 ± 0.37
303.15 K, m1 = 0.00057	0.0136 ± 0.0005	–
303.15 K, m1 = 0.00061	0.0143 ± 0.0004	–
303.15 K, m1 = 0.00065	0.0151 ± 0.0004	–
303.15 K, m1 = 0.00068	0.0158 ± 0.0005	–
303.15 K, m1 = 0.00071	0.0166 ± 0.0005	–
303.15 K, m1 = 0.00075	0.0173 ± 0.0004	–
303.15 K, m1 = 0.0008	0.0183 ± 0.0004	–
303.15 K, m1 = 0.00083	0.0189 ± 0.0004	–
303.15 K, m1 = 0.00087	0.0196 ± 0.0004	–
303.15 K, m1 = 0.00091	0.0202 ± 0.0004	–
303.15 K, m1 = 0.00095	0.0209 ± 0.0004	–
303.15 K, m1 = 0.001	0.0216 ± 0.0004	–
303.15 K, m1 = 0.00105	0.0223 ± 0.0003	–
303.15 K, m1 = 0.00111	0.023 ± 0.0003	–
303.15 K, m1 = 0.00118	0.0237 ± 0.0003	–
303.15 K, m1 = 0.00125	0.0244 ± 0.0003	–
303.15 K, m1 = 0.00133	0.0252 ± 0.0003	–
303.15 K, m1 = 0.00143	0.0261 ± 0.0003	–
303.15 K, m1 = 0.00154	0.027 ± 0.0003	–
303.15 K, m1 = 0.0016	0.0276 ± 0.0003	–
303.15 K, m1 = 0.00167	0.0281 ± 0.0003	–
303.15 K, m1 = 0.00174	0.0287 ± 0.0003	–
303.15 K, m1 = 0.00182	0.0293 ± 0.0003	–
303.15 K, m1 = 0.0019	0.03 ± 0.0003	–
303.15 K, m1 = 0.002	0.0307 ± 0.0003	–
308.15 K, m1 = 0.00065	0.0167 ± 0.0006	–
308.15 K, m1 = 0.00068	0.0175 ± 0.0005	–
308.15 K, m1 = 0.00071	0.0182 ± 0.0005	–
308.15 K, m1 = 0.00075	0.0193 ± 0.0005	–
308.15 K, m1 = 0.0008	0.0203 ± 0.0004	–
308.15 K, m1 = 0.00083	0.0209 ± 0.0005	–
308.15 K, m1 = 0.00087	0.0217 ± 0.0005	–
308.15 K, m1 = 0.00091	0.0225 ± 0.0004	–
308.15 K, m1 = 0.00095	0.0232 ± 0.0004	–
308.15 K, m1 = 0.001	0.024 ± 0.0004	–
308.15 K, m1 = 0.00105	0.0248 ± 0.0004	–
308.15 K, m1 = 0.00111	0.0257 ± 0.0004	–
308.15 K, m1 = 0.00118	0.0266 ± 0.0004	–
308.15 K, m1 = 0.00125	0.0275 ± 0.0004	–
308.15 K, m1 = 0.00133	0.0284 ± 0.0004	–
308.15 K, m1 = 0.00143	0.0294 ± 0.0004	–
308.15 K, m1 = 0.00154	0.0306 ± 0.0004	–
308.15 K, m1 = 0.0016	0.0312 ± 0.0004	–
308.15 K, m1 = 0.00167	0.0318 ± 0.0004	–
308.15 K, m1 = 0.00174	0.0325 ± 0.0004	–
308.15 K, m1 = 0.00182	0.0332 ± 0.0004	–
308.15 K, m1 = 0.0019	0.0339 ± 0.0004	–
308.15 K, m1 = 0.002	0.0346 ± 0.0004	–
313.15 K, m1 = 0.00057	0.0163 ± 0.0004	–
313.15 K, m1 = 0.00061	0.0171 ± 0.0005	–
313.15 K, m1 = 0.00065	0.0182 ± 0.0006	–
313.15 K, m1 = 0.00068	0.0191 ± 0.0007	–
313.15 K, m1 = 0.00071	0.02 ± 0.0005	–
313.15 K, m1 = 0.00075	0.021 ± 0.0005	–
313.15 K, m1 = 0.0008	0.0222 ± 0.0006	–
313.15 K, m1 = 0.00083	0.023 ± 0.0006	–
313.15 K, m1 = 0.00087	0.024 ± 0.0005	–
313.15 K, m1 = 0.00091	0.0248 ± 0.0005	–
313.15 K, m1 = 0.00095	0.0259 ± 0.0005	–
313.15 K, m1 = 0.001	0.0269 ± 0.0005	–
313.15 K, m1 = 0.00105	0.0278 ± 0.0004	–
313.15 K, m1 = 0.00111	0.0288 ± 0.0004	–
313.15 K, m1 = 0.00118	0.0299 ± 0.0004	–
313.15 K, m1 = 0.00125	0.0308 ± 0.0004	–
313.15 K, m1 = 0.00133	0.0321 ± 0.0004	–
313.15 K, m1 = 0.00143	0.0333 ± 0.0004	–
313.15 K, m1 = 0.00154	0.0347 ± 0.0004	–
313.15 K, m1 = 0.0016	0.0353 ± 0.0004	–
313.15 K, m1 = 0.00167	0.036 ± 0.0004	–
313.15 K, m1 = 0.00174	0.0368 ± 0.0004	–
313.15 K, m1 = 0.00182	0.0376 ± 0.0004	–
313.15 K, m1 = 0.0019	0.0384 ± 0.0004	–
313.15 K, m1 = 0.002	0.0392 ± 0.0005	–
318.15 K, m1 = 0.00057	0.0184 ± 0.0005	–
318.15 K, m1 = 0.00061	0.0193 ± 0.0005	–
318.15 K, m1 = 0.00065	0.0206 ± 0.0008	–
318.15 K, m1 = 0.00069	0.0222 ± 0.0007	–
318.15 K, m1 = 0.00074	0.0237 ± 0.0006	–
318.15 K, m1 = 0.0008	0.0254 ± 0.0006	–
318.15 K, m1 = 0.00085	0.0265 ± 0.0006	–
318.15 K, m1 = 0.00091	0.0281 ± 0.0006	–
318.15 K, m1 = 0.00095	0.0292 ± 0.0006	–
318.15 K, m1 = 0.001	0.0302 ± 0.0005	–
318.15 K, m1 = 0.00104	0.031 ± 0.0005	–
318.15 K, m1 = 0.00109	0.0318 ± 0.0005	–
318.15 K, m1 = 0.00114	0.0328 ± 0.0005	–
318.15 K, m1 = 0.00119	0.0337 ± 0.0005	–
318.15 K, m1 = 0.00125	0.0347 ± 0.0005	–
318.15 K, m1 = 0.00132	0.0358 ± 0.0005	–
318.15 K, m1 = 0.00139	0.0368 ± 0.0005	–
318.15 K, m1 = 0.00147	0.038 ± 0.0005	–
318.15 K, m1 = 0.00156	0.0393 ± 0.0005	–
318.15 K, m1 = 0.00167	0.0406 ± 0.0005	–
318.15 K, m1 = 0.00172	0.0413 ± 0.0005	–
318.15 K, m1 = 0.00179	0.042 ± 0.0005	–
318.15 K, m1 = 0.00185	0.0428 ± 0.0005	–
318.15 K, m1 = 0.00192	0.0437 ± 0.0005	–
318.15 K, m1 = 0.002	0.0446 ± 0.0005	–
323.15 K, m1 = 0.00065	0.022 ± 0.0008	–
323.15 K, m1 = 0.00069	0.0235 ± 0.0007	–
323.15 K, m1 = 0.00074	0.025 ± 0.0007	–
323.15 K, m1 = 0.0008	0.0271 ± 0.0007	–
323.15 K, m1 = 0.00085	0.0288 ± 0.0007	–
323.15 K, m1 = 0.00091	0.0305 ± 0.0007	–
323.15 K, m1 = 0.00095	0.0317 ± 0.0007	–
323.15 K, m1 = 0.001	0.0331 ± 0.0007	–
323.15 K, m1 = 0.00104	0.0343 ± 0.0006	–
323.15 K, m1 = 0.00109	0.0355 ± 0.0006	–
323.15 K, m1 = 0.00114	0.0367 ± 0.0006	–
323.15 K, m1 = 0.00119	0.038 ± 0.0006	–
323.15 K, m1 = 0.00125	0.0393 ± 0.0006	–
323.15 K, m1 = 0.00132	0.0406 ± 0.0005	–
323.15 K, m1 = 0.00139	0.0418 ± 0.0006	–
323.15 K, m1 = 0.00147	0.0433 ± 0.0005	–
323.15 K, m1 = 0.00156	0.0443 ± 0.0005	–
323.15 K, m1 = 0.00167	0.0455 ± 0.0005	–
323.15 K, m1 = 0.00172	0.0464 ± 0.0006	–
323.15 K, m1 = 0.00179	0.0473 ± 0.0006	–
323.15 K, m1 = 0.00185	0.0482 ± 0.0006	–
323.15 K, m1 = 0.00192	0.0491 ± 0.0006	–
323.15 K, m1 = 0.002	0.0501 ± 0.0006	–
